Values after ≈ are worked out from the molar mass of the structure shown.

This is an account of results in patent US5082857A, “Chemical compound” (Kyowa Hakko Kogyo Kabushiki Kaisha, priority 1989, dated 1992).

The nature of one series: in vivo. The note with it: mouse, iv.
A short description of series [1]: Solubility in various solvents.
For a further series, the system named is Sarcoma 180 tumour cells. Kind of series: Curing effect on Sarcoma 180 tumour cells. Particulars: i.v., 5 times at 24 h intervals, 10 days after inoculation. The series is classed as in vivo, female mice of ddy strain. As to the method:
As test animals, female mice of ddy strain (body weight about 20 g; each group consisting of 6 mice) were used. 5×10^6 Sarcoma 180 tumour cells were, on each occasion, inoculated into the animal under the skin of the armpit. From the first to 5th days after this, a dose of phosphate-buffered physiological saline (PBS; 0.2 ml) containing a given concentration of DC114-C as shown in Table 3 was intravenously given to the test animal. The administration was effected 5 times with an interval of 24 hours between each. […] 10 days after inoculation, T/C values viz. the ratio of the average volume (mm^3) of the tumours found on the animals treated with the test compounds to the corresponding volume found on the untreated animals were measured and these are shown in the following Table 3.

Another series deals with Balb 3T3/H-ras cells. In words: Growth inhibition against Balb 3T3/H-ras cells (neutral red). The note with it: Mus musculus, BALB/3T3, read-out: IC50 (concentration required for 50% inhibition of the growth of the cells); 72 hours, 37° C. It counts as cell-based. As to the method:
Into each well of a 96 well microtitre plate was poured a Balb 3T3/H-ras cell suspension (each 0.1 ml), containing 2×10^4 cell/ml and prepared by suspending the cells in medium A. Medium A was prepared by adding to F10 medium (commercial product of Gibco) fetal calf serum (0.1 g/ml), penicillin (100 Unit/ml) and streptomycin (100 μg/ml).
On each occasion, the plate was incubated at a temperature of 37° C. for 20 hours in a carbon dioxide incubator. Then a test sample of DC114-C was suitably diluted with medium A. The diluted sample (0.05 ml) was added to each well, followed by incubation at a temperature of 37° C. for 72 hours in the incubator. After this, the supernatant was removed from the medium. Another medium (each 0.1 ml), prepared by adding to medium A neutral red (0.02%), was added to each well. The cells were dyed by incubation at a temperature of 37° C. for one hour in the incubator.
The supernatant was removed and the residue was washed once with physiological saline. After removal of the dyestuff by using a mixture of 0.001N hydrochloric acid and 30% ethanol, a micro-plate reader was applied to the material to measure the absorbance at 550 nm. The following Table 2 indicates the results obtained by comparing the absorbance of untreated cells with the absorbance of the test sample measured at various concentrations.

For series [2], the system named is Staphylococcus aureus ATCC 6538P. In words: Anti-bacterial activity, MIC by agar dilution method. It counts as cell-based. Particulars: ATCC6538P, pH 7.0, read-out: minimum inhibitory concentration (MIC). From the text: (§1) The following Table 1 indicates minimum inhibitory concentration (MIC) of DC114-C against selected microorganisms, measured by the agar dilution method at pH 7.0.
(In agar dilution the substance is mixed into plates at graded concentrations.)

In series [3] the test system is Salmonella typhi ATCC 9992. The series is described as above. It counts as cell-based. Particulars: Salmonella enterica, pH 7.0, read-out: minimum inhibitory concentration (MIC).
Source text: as §1

The test system of series [4] is Klebsiella pneumoniae ATCC 10031. Described as above. It counts as cell-based. Particulars: ATCC10031, pH 7.0, read-out: minimum inhibitory concentration (MIC).
Source text: as §1

Series [5] deals with Bacillus subtilis No. 10707. The series is described as above. The series is classed as cell-based. Particulars: pH 7.0, read-out: minimum inhibitory concentration (MIC).
Source text: as §1

The test system of series [6] is Enterococcus faecium ATCC 10541. The description is as above. It counts as cell-based. Particulars: ATCC10541, pH 7.0, read-out: minimum inhibitory concentration (MIC).
Source text: as §1

The LD50 is the dose at which mortality reaches 50%. Read a low LD50 as a more toxic substance. Compound `Cc1cc2c(O)c3c(cc2c2oc(C4(C)OC4C4CO4)cc(=O)c12)C(=O)C1OC1(C1CC(=O)C(O)C(C)O1)C3O` (stereo not shown) [DC114-C] registered an LD50 in “in vivo” of 17.6 mg/kg. For the same compound, in series [1] (chloroform, DMSO, methanol, ethyl acetate, acetone), the “Solubility in chloroform, dimethylsulfoxide (DMSO), methanol, ethyl acetate and acetone” value is “Readily soluble”. The “Solubility in water and n-hexane” value in series [1] (water, n-hexane) was “Hardly soluble”. Besides, the “T/C (ratio of average tumour volume, treated to untreated)” value with Sarcoma 180 tumour cells (0.78 mg/kg each) was 0.56; in the series with Sarcoma 180 tumour cells (1.56 mg/kg each), 0.48; in the series on Sarcoma 180 tumour cells (3.13 mg/kg each) it was 0.26; with Sarcoma 180 tumour cells (6.25 mg/kg each), 0.15. The IC50 with Balb 3T3/H-ras cells is 0.06 µg/mL (≈ 0.109 µM). The MIC in [2] was found to be 0.07 µg/mL (≈ 0.127 µM); in [3] it was 8.3 µg/mL (≈ 15.1 µM); in series [4], 4.2 µg/mL (≈ 7.63 µM); in series [5], 0.26 µg/mL (≈ 0.472 µM); in [6], 0.13 µg/mL (≈ 0.236 µM).
